# Measured values from PubChem BioAssay (NCI).
# Where “and” joins values, the source holds several entries; their conditions need not be identical. Equal entries are not always repeated.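 Tested at 5 concentrations; 48 h exposure; 96-well plates; endpoints linearly interpolated, else capped at highest concentration. Abbreviation: GI50, concentration required for 50% inhibition of growth. Definition used: TGI = concentration required for complete inhibition of growth.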
# What was measured:
# Experiment in all cases: NCI tumour cell line growth inhibition, 48 h
# [1] = tested on: LXFL 529 NSCLC
# [2] = tested on: KM20L2 colon
# [3] = tested on: SNB-78 CNS
# [4] = tested on: M19-MEL melanoma
# [5] = tested on: DMS 114 small cell lung
# [6] = tested on: DLD-1 colon
# [7] = tested on: HOP-18 NSCLC
# [8] = tested on: MDA-N
# [9] = tested on: RXF-631 renal
# [10] = tested on: P388/ADR leukemia
SMILES,TGI [1],TGI [2],TGI [3],TGI [4],TGI [5],TGI [6],TGI [7],TGI [8],TGI [9],also measured
COCC(O)CN1C(N)=NC(O)C1O (stereo unspecified),> 100 µM,> 100 µM,> 100 µM,> 100 µM,> 100 µM,> 100 µM,> 100 µM,–,–,–
C/C=C\C(C)=C/C(C)C(=O)CC(O)CC1CC(=O)NC(=O)C1 (stereo unspecified),–,–,–,–,–,–,–,> 100 µM,–,–
CCN(CC)CC(C(=O)Nc1c(C)cccc1C)/C(C)=N/NC(N)=S (stereo unspecified),> 100 µM,> 100 µM,> 100 µM,> 100 µM,> 100 µM,> 100 µM,–,–,> 100 µM,–
Cc1cn2cc(-c3ccncc3)nc2s1,> 100 µM,> 100 µM,> 100 µM,> 100 µM,> 100 µM,> 100 µM,> 100 µM,–,> 100 µM,–
O=C1C2=C(Nc3cc([N+](=O)[O-])ccc3N2)OC1c1c[nH]c2ccc(COc3ccccc3)cc12 (stereo unspecified),–,–,–,–,–,–,–,> 100 µM,–,–
O=C(Nc1cccc(Cl)c1)c1cc2cc(N=Nc3ccc(Br)cc3)ccc2oc1=O,30.5 µM,> 100 µM,> 100 µM,–,56.6 µM,> 100 µM,> 100 µM,–,> 100 µM,–
Cn1c(N)cc(=O)nc1N,–,–,–,–,–,–,–,> 100 µM,–,–
CC/C(=C(\c1ccccc1)c1ccc(OCC[N+](C)(C)C)cc1)c1ccccc1,24.6 µM,31.1 µM,34.3 µM,26.2 µM,21.7 µM,37.9 µM,26.2 µM,–,41 µM,–
Nc1nc(N)c2nn(-c3ccc(C(=O)O)cc3)nc2n1,–,–,–,–,–,–,–,> 100 µM,–,–
Cc1ccc(CCNC(=S)SCC(NC(=O)CCC(N)C(=O)O)C(=O)NCC(=O)O)cc1 (stereo unspecified),2.12 µM,5.1 µM,–,4.07 µM,2.72 µM,2.63 µM,7.76 µM,–,5.62 µM,–
O=C(CN1C(=O)c2ccccc2C1=O)NC1(C(=O)O)CCCC1,–,–,–,–,–,–,–,> 100 µM,–,–
CCCC1C2=C(C(=O)OC2=O)C2C(CC)CC3=C(C(=O)OC3=O)C12 (stereo unspecified),–,–,–,–,–,–,–,> 100 µM,–,–
O=C(NC(c1ccccc1)C(O)C(=O)OCc1ccc2c(c1)C(=O)c1ccccc1C2=O)c1ccccc1 (stereo unspecified),> 100 µM,> 100 µM,> 92.4 µM,> 100 µM,> 100 µM,> 100 µM,10.5 µM,> 100 µM,> 100 µM,TGI [10]: > 100 µM
CC(=O)OC12CCCCC1C1(CCCC1)NC2=O (stereo unspecified),> 100 µM,> 100 µM,> 100 µM,> 100 µM,> 100 µM,> 100 µM,> 100 µM,–,–,–
COc1cccc2c1C(=N)c1c(O)c3c(c(O)c1C2=O)C[C@@](O)(C(C)=O)C[C@@H]3OC1CC(N)C(O)C(C)O1 (stereo partly specified),3.54 µM,–,8.68 µM and 18.9 µM,2.15 µM and 2.64 µM,0.73 µM and 1.46 µM,5.7 µM and 14.9 µM,3.48 µM and 2.56 µM,10.4 µM,3.11 µM,GI50 [8]: 1.15 µM; GI50 [10]: 13.6 µM; TGI [10]: 51.7 µM
Nc1n[nH]c(=O)c2c1c(Br)cn2C1OC(CO)C(O)C1O (stereo unspecified),> 100 µM,> 100 µM,> 80.5 µM,40.2 µM,17.8 µM,> 25.3 µM,65.6 µM,–,6.59 µM,–
O=C1c2ccccc2CC1C1(O)C(=O)Nc2c(Cl)cc(Cl)cc21 (stereo unspecified),> 100 µM,> 100 µM,> 100 µM,–,68.8 µM,> 100 µM,> 100 µM,–,> 100 µM,–
COC(=O)C1CCC2(CC1)NC(=O)NC2=O (stereo unspecified),> 100 µM,> 100 µM,> 100 µM,> 100 µM,> 100 µM,> 100 µM,> 100 µM,–,> 100 µM,–
COc1ccc(/C=C(\NC(=O)c2ccccc2)c2nc3ccccc3[nH]2)cc1,> 100 µM,> 100 µM,–,> 100 µM,90.6 µM,> 100 µM,–,–,–,–
C[CH2][Ge]1([CH2]C)[CH2]CC2(CCN(CCCN(C)C)C2)C[CH2]1,–,11 µM,–,2.63 µM,3.88 µM,–,8.25 µM,1.02 µM,–,GI50 [8]: 0.369 µM; GI50 [10]: 1.02 µM; TGI [10]: 1.87 µM; GI50 [2]: 2.94 µM; GI50 [4]: 1.47 µM; GI50 [5]: 2.11 µM; GI50 [7]: 3.19 µM

SMILES,TGI [1],TGI [2],TGI [3],TGI [4],TGI [5],TGI [6],TGI [7],TGI [8],TGI [9],also measured
CC(C)(O)C1CC(=O)C(C)(C2C(O)CC3(C)C4CC=C5C(CCC(O)C5(C)C)C4(C)C(=O)CC23C)O1 (stereo unspecified),–,–,–,–,–,–,–,> 100 µM,–,–
CCOc1ccccc1Nc1nc(C)c(C(=O)CC(=O)C(=O)Nc2ccccc2)s1,> 100 µM,> 100 µM,> 100 µM,> 100 µM,> 100 µM,> 100 µM,> 100 µM,–,–,–
O=C1[C@@H]2C3C=CC([C@H]4C(=O)N(CO)C(=O)[C@@H]34)[C@@H]2C(=O)N1CO,> 100 µM,> 31.6 µM,> 100 µM,> 58.8 µM,> 62.2 µM,> 74.1 µM,86.4 µM,–,–,–
COc1cc(/C=C/C(=O)C(C)(C)C)cc(OC)c1OC,93.5 µM,> 100 µM,–,> 100 µM,71.5 µM,> 100 µM,> 100 µM,–,–,–
O=c1c2ccccc2nc(-c2ccccc2Cl)n1NC1OC(CO)C(O)C(O)C1O (stereo unspecified),> 100 µM,> 100 µM,> 100 µM,> 100 µM,> 100 µM,> 100 µM,> 100 µM,–,–,–
O=C1c2cccc3cc4ccccc4c(c23)C(=O)N1CCCNCCNCCCN1C(=O)c2cccc3cc4ccccc4c(c23)C1=O,–,–,–,–,–,–,–,1.82 µM,–,–
Cn1c(N)c(N=Nc2ccc(S(N)(=O)=O)cc2)c(=O)n(C)c1=O,–,–,–,–,–,–,–,> 100 µM,–,–
S=C(N/N=C/c1ccccc1)NC1CC(c2ccccc2)Oc2ccccc21 (stereo unspecified),> 100 µM,–,96.1 µM,> 100 µM,> 100 µM,> 100 µM,–,–,–,–
CC(=O)/C=C\C(=O)NNS(=O)(=O)c1ccc(C)cc1,> 100 µM,> 100 µM,> 100 µM,> 100 µM,–,> 100 µM,–,–,> 100 µM,–
Cc1nn(C(=O)CC(=O)Nc2ccccc2Cl)c(C)c1N=Nc1ccccc1Cl,> 100 µM,> 100 µM,> 100 µM,> 100 µM,> 100 µM,> 100 µM,> 100 µM,–,> 100 µM,–
O=S(O)CCCSSCCCCSSCCCS(=O)O,> 100 µM,> 100 µM,> 100 µM,> 100 µM,> 100 µM,> 100 µM,> 100 µM,–,–,–
CC(=O)NC(Cc1ccccc1)C(=S)N1CCCC1 (stereo unspecified),> 100 µM,> 100 µM,> 100 µM,> 100 µM,> 100 µM,> 100 µM,> 100 µM,–,> 100 µM,–
C/C(=C1/N=C(c2ccccc2)OC1=O)c1cccs1,–,–,–,–,–,–,–,> 100 µM,–,–
COc1ccc2nccc(C3OC(=O)N4CCC(=O)CC34)c2c1 (stereo unspecified),> 100 µM,> 100 µM,> 100 µM,> 100 µM,–,–,–,–,> 100 µM,–
CC(=O)NC1C(=O)CC(c2ccccc2)N(C)C1c1ccccc1 (stereo unspecified),> 100 µM,> 100 µM,> 100 µM,> 100 µM,> 100 µM,> 100 µM,–,–,> 100 µM,–
NCCN.O=N[O-].O=N[O-].O=N[O-].O=N[O-].[Co+3].[K+],> 100 µM,> 100 µM,> 100 µM,> 100 µM,> 100 µM,> 100 µM,–,–,–,GI50 [1]: > 100 µM; GI50 [2]: > 100 µM; GI50 [3]: > 100 µM; GI50 [4]: > 100 µM; GI50 [5]: > 100 µM; GI50 [6]: > 100 µM
O=c1[nH]c2cccccc-2c1-c1nc2ccccc2[nH]1,> 100 µM,> 100 µM,> 100 µM,> 100 µM,> 100 µM,> 100 µM,–,–,–,–
O=C1OC2C(O)COC2(OCc2c[nH]c3ccccc23)C1O (stereo unspecified) (tested in a mixture with another compound),> 100 µM,> 100 µM,> 100 µM,> 100 µM,> 100 µM,> 100 µM,> 100 µM,–,–,–
COc1cc(OC)c(-c2oc3ccccc3c(=O)c2O)c(OC)c1,–,–,–,–,–,–,–,2.93 µM,–,–
